Results taken from patent publication EP2420842A1, “In vivo imaging of calcified lesions” (Rheinisch-Westfälische Technische Hochschule Aachen (RWTH), priority 2010, dated 2012).

Tests used:
[1] = tested on: calcifications; assay: Explanted organ fluorescence, 2D reflectance imaging and ROI quantification after co-injection of both probes; format: in vivo, DBA/2 mice
[2] = tested on: calcifications; assay: In vivo whole body fluorescence, 2D mode (FMT instrument); set-up: species or system DBA/2 mice; conditions: standard sensitivity settings
Experimental: (§1) We used the FMT™ 2500 instrument from VisEn Medical Inc. (Bedford, MA). Mice were anesthetized with Isofluran (1.5% air 2L/min), depilated in the scanning area and a background measurement was taken for both wavelengths (680 nm and 750 nm). After this procedure the animals received both OsteoSense 750® (2 nmol in a volume of 150 µl) and Fetuin-A Alexa 680 (50 µl of a 7mg/ml solution) by intraperitoneal injection. 24 h after this application, the mice were analyzed in the FMT again and the fluorescence intensity was detected. Reconstruction of the data was performed by VisEn software.

[3] = tested on: calcifications; assay: In vivo 3D fluorescence molecular tomography of whole mice; set-up: species or system DBA/2 mice
Experimental: as §1

[4] = tested on: calcifications; assay: Combined fluorescence molecular tomography and micro computed tomography (CT-FMT fusion); format: in vivo, mice
Experimental: A dual energy µCT for small animals (TomoScope DUO, CT-Imaging, Erlangen, Germany) was used for anatomical image acquisition. The two electron tubes were both run at energies of 65KV. Each flat panel detector acquired 720 projections at 5 fps, containing 1032x1012 pixels with a pixel size of (50µm)^2. A full rotation was performed and the scan time was 90 seconds per subscan covering 30.8 mm in the transversal direction. Two subscans were acquired to cover almost the entire mouse body. A Feldkamp algorithm was used for reconstruction with isotropic voxel size of […], dimensions of 600x500x440, field of view of 42mm x 35mm x 30.8mm and a soft reconstruction kernel (T10).
The FMT probe was injected 24 hours before imaging through i.v. tail vein injection. Hair was removed with depilatory crème around the region of interest. For preparations and imaging, mice were anesthetized with Isofluran. […]
The reconstructed 3D data sets from CT and FMT were fused by computing a rigid body transformation minimizing the residual error between fiducial markers detected in both modalities. […] The average number of markers that were found in both modalities was 12 with average fiducial error of 0.174mm, which was evaluated on a representative set of 31 scans. […]

[5] = tested on: calcified lesions; assay: Histology: staining of calcified lesions with unlabelled or Alexa Fluor 488 labelled fetuin-A (injected or applied to sections); format: in vivo, fetuin-A deficient mice
Experimental: The mice were injected with unlabelled or Alexa Fluor® 488 coupled fetuin-A. They received 100 µl / 25 g body weight of a 7 mg/ml solution. Five hours after injection the mice were killed, organs were harvested, embedded in TissueTek (Sakura), and snap-frozen and in liquid nitrogen. Serial cryotome sections were prepared and fixed in ice cold acetone. For general histology hematoxilin/eosin staining and von-Kossa staining were performed.
To localize unlabelled fetuin-A, sections were incubated for one hour with a homemade polyclonal rabbit anti bovine fetuin-A antibody followed by secondary goat anti rabbit Alexa Fluor® 546 antibody and DAPI staining. To localize calcified lesions, sections were incubated with Alexa Fluor® 488-coupled fetuin-A for one hour and then were counterstained with DAPI. Sections of organs from mice injected with Alexa Fluor® 488 labelled Fetuin A were stained with DAPI only.

| Molecule | combined signal from regions of interest (ROI), kidneys ([1]; Fetuin-A-/- mice, kidneys) [counts/energy] | combined signal from regions of interest (ROI), lungs ([1]; Fetuin-A-/- mice, lungs) [counts/energy] | staining of heart (explanted organ) ([1]; fetuin-A deficient mice) | staining of brown fat, lungs and kidneys (explanted organs) ([1]; fetuin-A deficient mice, heavily calcified organs) | tissue accumulation, Fetuin-A-/- versus wildtype, kidneys ([1]; kidneys) | tissue accumulation, Fetuin-A-/- versus wildtype, lungs ([1]; lungs) | signal (2D reflectance images) ([1]; tissues (brown fat, heart, lung, kidneys) from wildtype mice, OsteoSense at both 1-fold and 10-fold sensitivity setting) [Count/Energy] | combined signal from regions of interest (ROI), kidneys ([1]; wildtype mice, kidneys) [counts/energy] | combined signal from regions of interest (ROI), lungs ([1]; wildtype mice, lungs) [counts/energy] | whole body 2D scan signal ([2]; D2, Fetuin-A+/+ wildtype mice) | whole body 2D scan signal ([2]; D2, Fetuin-A-/- mice) | 3D fluorescence tomography staining pattern ([3]; DBA/2 wildtype mouse (Fig. 6A, B)) | excretion route (staining of the digestive tract, signal associated with faeces) ([3]; digestive tract) | 3D fluorescence tomography signal ([3]; fetuin-A deficient (knockout) mouse (Fig. 6D)) | 3D fluorescence signal strength ([3]; wildtype and knockout animal (Fig. 6A, C), higher in wildtype than in knockout) | CT-FMT fused signal localization ([4]; D2, fetuin-A+/+ wildtype mice) | CT-FMT fused signal localization ([4]; D2, fetuin-A-/- mice) | lesion size detected compared with established histology methods (H/E, von Kossa) ([5]; Fig. 1, injected into live animals or applied to histological sections) | detection of lesions in serial sections of the heart ([5]; Fig. 2, fetuin-A deficient mouse, compared with Hematoxylin-Eosin and von Kossa) | staining of calcified lesions ([5]; fetuin-A deficient mice, both in vivo (injected) and on sections) |
| --- | --- | --- | --- | --- | --- | --- | --- | --- | --- | --- | --- | --- | --- | --- | --- | --- | --- | --- | --- | --- |
| Fetuin-A Alexa 680: Fetuin-A monomer (Sigma Aldrich, F2379), purified by gel chromatography, coupled to Alexa Fluor® 680 dye | 6740 | 3303 | stained weakly | strongly stained | increased over six-fold | almost doubled | 0.25 | 1025 | 1816 | no signal | strong signals | outlined the gut, kidneys and the brown fat pad in the neck | at least partially excreted through this route | highly detected in the neck and in the left kidney but also in the gut | much higher | low signal in the digestive tract | faint signal in the neck and the thorax, but a higher one in the kidney and the digestive tract |  |  |  |
| Alexa Fluor® 488-labelled fetuin-A: Fetuin-A monomer (Sigma Aldrich, F2379), purified by gel chromatography, coupled to Alexa Fluor® 488 dye (conjugate, UniProt P12763 19-359, looked up, Alexa Fluor 488 dye, Fetuin-A monomer (Sigma Aldrich, F2379), purified by gel chromatography, coupled to Alexa Fluor® 488 dye) Alpha-2-HS-glycoprotein: IPLDPVAGYKEPACDDPDTEQAALAAVDYINKHLPRGYKHTLNQIDSVKVWPRRPTGEVYDIEIDTLETTCHVLDPTPLANCSVRQQTQHAVEGDCDIHVLKQDGQFSVLFTKCDSSPDSAEDVRKLCPDCPLLAPLNDSRVVHAVEVALATFNAESNGSYLQLVEISRAQFVPLPVSVSVEFAVAATDCIAKEVVDPTKCNLLAEKQYGFCKGSVIQKALGGEDVRVTCTLFQTQPVIPQPQPDGAEAEAPSAVPDAAGPTPSAAGPPVASVVVGPSVVAVPLPLHRAHYDLRHTFSGVASVESSSGEAFHVGKTPIVGQPSIPGGPVRLCPGRIRYFKI |  |  |  |  |  |  |  |  |  |  |  |  |  |  |  |  |  | also detected much smaller lesions | enabled the detection of an additional very small lesion | readily stained calcified lesions |
